Reference: ChEMBL document CHEMBL4828771, “Discovery and Development of a Potent, Selective, and Orally Bioavailable CHK1 Inhibitor Candidate: 5-((4-((3-Amino-3-methylbutyl)amino)-5-(trifluoromethyl)pyrimidin-2-yl)amino)picolinonitrile” (J Med Chem, 2021)
Active and inactive are the calls of the source. No cut-off for these calls is given here.

How the values were obtained:
MV4-11 [1] = test: Antitumor activity against human MV4-11 cells xenografted in mouse assessed as inhibition of tumor growth at 5 mg/kg, po dosed for 21 days measured twice every week relative to control; type: functional; details: MV4-11, po, 504 h, time 21 day, read-out: TGI
[2] = molecular target: Calcium/calmodulin-dependent protein kinase type II subunit delta (Homo sapiens) (UniProt Q13557); test: Inhibition of wild type human CAMK2D (M1 to E329 residues) expressed in bacterial expression system assessed as protein activity at 0.5 uM relative to control; design: scale not given: the % may be the effect or the level left
Sequence of Calcium/calmodulin-dependent protein kinase type II subunit delta (Homo sapiens) (Q13557 whole entry, the tested form may be a part): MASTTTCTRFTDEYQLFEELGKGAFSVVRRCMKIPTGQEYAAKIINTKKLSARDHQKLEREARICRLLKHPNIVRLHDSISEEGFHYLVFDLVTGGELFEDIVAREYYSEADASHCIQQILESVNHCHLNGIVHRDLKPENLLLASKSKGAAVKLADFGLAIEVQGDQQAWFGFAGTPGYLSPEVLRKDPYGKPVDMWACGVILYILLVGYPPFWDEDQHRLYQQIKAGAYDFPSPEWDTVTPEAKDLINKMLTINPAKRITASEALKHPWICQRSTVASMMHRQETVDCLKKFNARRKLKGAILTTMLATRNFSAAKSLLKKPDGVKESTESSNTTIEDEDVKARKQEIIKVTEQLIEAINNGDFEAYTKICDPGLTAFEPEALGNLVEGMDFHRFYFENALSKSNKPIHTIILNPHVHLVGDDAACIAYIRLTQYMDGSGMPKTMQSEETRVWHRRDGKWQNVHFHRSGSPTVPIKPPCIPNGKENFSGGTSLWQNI

[3] = molecular target: Calcium/calmodulin-dependent protein kinase type II subunit beta (Homo sapiens) (UniProt Q13554); test: Inhibition of wild type human CAMK2B (M1 to Q380 residues) expressed in bacterial expression system assessed as protein activity at 0.5 uM relative to control; design: scale not given: the % may be the effect or the level left
Sequence of Calcium/calmodulin-dependent protein kinase type II subunit beta (Homo sapiens) (Q13554 whole entry, the tested form may be a part): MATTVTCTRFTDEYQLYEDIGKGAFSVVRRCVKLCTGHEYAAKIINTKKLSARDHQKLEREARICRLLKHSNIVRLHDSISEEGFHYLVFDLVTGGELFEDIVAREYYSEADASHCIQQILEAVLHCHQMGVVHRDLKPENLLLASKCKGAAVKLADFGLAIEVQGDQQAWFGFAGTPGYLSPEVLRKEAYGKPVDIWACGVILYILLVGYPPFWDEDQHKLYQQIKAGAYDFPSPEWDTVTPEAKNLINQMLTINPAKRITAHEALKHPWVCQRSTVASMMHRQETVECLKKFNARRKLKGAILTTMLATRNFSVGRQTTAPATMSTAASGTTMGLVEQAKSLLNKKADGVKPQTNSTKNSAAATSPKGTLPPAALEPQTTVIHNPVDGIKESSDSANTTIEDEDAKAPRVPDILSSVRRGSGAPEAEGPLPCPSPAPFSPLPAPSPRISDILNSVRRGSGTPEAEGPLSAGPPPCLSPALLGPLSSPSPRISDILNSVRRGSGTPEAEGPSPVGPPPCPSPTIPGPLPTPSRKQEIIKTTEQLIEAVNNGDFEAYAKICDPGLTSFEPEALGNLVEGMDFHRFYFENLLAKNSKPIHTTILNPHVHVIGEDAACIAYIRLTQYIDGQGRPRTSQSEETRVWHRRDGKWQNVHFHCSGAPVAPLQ

MV4-11 [4] = test: Antiproliferation activity against human MV4-11 cells assessed as reduction in cell viability incubated for 72 hrs by MTS assay; type: functional, cell-based; details: MV4-11, 72 h
Z-138 = test: Antiproliferation activity against human Z138 cells assessed as reduction in cell viability incubated for 72 hrs by MTS assay; type: functional, cell-based; details: Z-138, 72 h
hERG (KCNH2) = hERG (KCNH2) (Homo sapiens, UniProt Q12809); test: Inhibition of human ERG expressed in HEK293 cells at 10 uM by patch-clamp technique relative to control; type: cell-based; details: HEK293 cells that express hERG
Sequence of hERG (KCNH2) (Q12809 whole entry): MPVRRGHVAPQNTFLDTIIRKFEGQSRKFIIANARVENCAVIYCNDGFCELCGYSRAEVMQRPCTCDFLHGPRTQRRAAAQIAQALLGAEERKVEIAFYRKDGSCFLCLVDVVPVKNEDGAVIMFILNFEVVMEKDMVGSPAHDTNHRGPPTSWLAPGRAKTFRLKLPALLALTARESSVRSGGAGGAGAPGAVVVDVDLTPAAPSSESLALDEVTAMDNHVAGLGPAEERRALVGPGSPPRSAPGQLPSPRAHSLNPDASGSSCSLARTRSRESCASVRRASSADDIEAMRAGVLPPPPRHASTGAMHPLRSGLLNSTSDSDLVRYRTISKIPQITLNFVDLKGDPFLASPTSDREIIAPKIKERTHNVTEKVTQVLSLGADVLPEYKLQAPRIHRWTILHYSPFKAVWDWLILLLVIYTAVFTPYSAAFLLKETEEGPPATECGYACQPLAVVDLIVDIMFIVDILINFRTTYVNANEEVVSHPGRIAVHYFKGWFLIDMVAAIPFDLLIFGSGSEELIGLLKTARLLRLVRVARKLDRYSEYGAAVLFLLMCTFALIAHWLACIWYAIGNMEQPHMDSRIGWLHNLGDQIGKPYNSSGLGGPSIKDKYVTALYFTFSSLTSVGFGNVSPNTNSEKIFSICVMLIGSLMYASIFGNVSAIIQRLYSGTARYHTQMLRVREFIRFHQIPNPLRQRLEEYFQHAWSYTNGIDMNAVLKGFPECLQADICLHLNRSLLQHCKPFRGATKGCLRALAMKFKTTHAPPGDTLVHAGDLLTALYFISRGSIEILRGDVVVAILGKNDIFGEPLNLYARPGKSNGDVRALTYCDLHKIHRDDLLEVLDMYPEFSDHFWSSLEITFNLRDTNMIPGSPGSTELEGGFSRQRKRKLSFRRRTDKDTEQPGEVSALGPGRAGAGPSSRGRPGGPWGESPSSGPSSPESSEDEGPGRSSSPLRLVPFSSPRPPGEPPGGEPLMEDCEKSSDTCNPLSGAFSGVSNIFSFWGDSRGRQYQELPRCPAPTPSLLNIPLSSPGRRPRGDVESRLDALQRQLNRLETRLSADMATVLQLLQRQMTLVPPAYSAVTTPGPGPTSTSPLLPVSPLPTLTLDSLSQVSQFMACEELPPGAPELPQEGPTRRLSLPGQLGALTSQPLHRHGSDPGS

[5] = Half life in ICR mouse at 20 mg/kg, po measured after 0.083 to 48 hrs by LC-MS/MS analysis; type: ADME, organism-based; details: in vivo, time 0.083-48 hrs
[6] = Cmax in ICR mouse at 20 mg/kg, po measured after 0.083 to 48 hrs by LC-MS/MS analysis; type: ADME, organism-based; design: route oral, time upper 48 hrs, time lower 0.083 hrs, dose 20 mg/kg; details: in vivo
[7] = AUCt in ICR mouse at 20 mg/kg, po measured after 0.083 to 48 hrs by LC-MS/MS analysis; type: ADME, organism-based; design: route oral, dose 20 mg/kg, time 0.083-48 hrs; details: in vivo
[8] = AUC (0 to infinity) in ICR mouse at 20 mg/kg, po measured after 0.083 to 48 hrs by LC-MS/MS analysis; type: ADME, organism-based; design: route oral, time upper 48 hrs, time lower 0.083 hrs, dose 20 mg/kg; details: in vivo
[9] = MRT (0 to infinity) in ICR mouse at 20 mg/kg, po measured after 0.083 to 48 hrs by LC-MS/MS analysis; type: ADME, organism-based; details: in vivo, time 0.083-48 hrs
[10] = molecular target: T1, Serine/threonine-protein kinase Chk1 (Homo sapiens) (UniProt O14757); test: Inhibition of wild type human CHK1 (M1 to G289 residue) expressed in bacterial expression system assessed as protein activity at 0.5 uM relative to control; design: scale not given: the % may be the effect or the level left
T1 sequence (whole entry): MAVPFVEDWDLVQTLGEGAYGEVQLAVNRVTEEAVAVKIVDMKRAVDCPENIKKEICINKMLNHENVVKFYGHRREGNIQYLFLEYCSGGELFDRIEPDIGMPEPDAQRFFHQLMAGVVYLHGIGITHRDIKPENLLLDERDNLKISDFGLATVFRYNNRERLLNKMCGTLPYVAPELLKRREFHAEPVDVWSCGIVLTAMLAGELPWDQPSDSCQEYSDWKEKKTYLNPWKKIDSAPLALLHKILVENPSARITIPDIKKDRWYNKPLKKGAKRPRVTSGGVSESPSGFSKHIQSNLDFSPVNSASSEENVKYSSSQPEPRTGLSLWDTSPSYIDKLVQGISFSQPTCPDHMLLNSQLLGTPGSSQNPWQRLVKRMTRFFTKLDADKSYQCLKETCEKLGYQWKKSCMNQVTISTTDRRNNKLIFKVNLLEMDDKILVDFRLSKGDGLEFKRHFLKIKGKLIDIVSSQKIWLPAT

[11] = molecular target: Ribosomal protein S6 kinase alpha-2 (Homo sapiens) (UniProt Q15349); test: Inhibition of wild type human RSK3 expressed in bacterial expression system assessed as protein activity at 0.5 uM relative to control; design: scale not given: the % may be the effect or the level left
Sequence of Ribosomal protein S6 kinase alpha-2 (Homo sapiens) (Q15349 whole entry): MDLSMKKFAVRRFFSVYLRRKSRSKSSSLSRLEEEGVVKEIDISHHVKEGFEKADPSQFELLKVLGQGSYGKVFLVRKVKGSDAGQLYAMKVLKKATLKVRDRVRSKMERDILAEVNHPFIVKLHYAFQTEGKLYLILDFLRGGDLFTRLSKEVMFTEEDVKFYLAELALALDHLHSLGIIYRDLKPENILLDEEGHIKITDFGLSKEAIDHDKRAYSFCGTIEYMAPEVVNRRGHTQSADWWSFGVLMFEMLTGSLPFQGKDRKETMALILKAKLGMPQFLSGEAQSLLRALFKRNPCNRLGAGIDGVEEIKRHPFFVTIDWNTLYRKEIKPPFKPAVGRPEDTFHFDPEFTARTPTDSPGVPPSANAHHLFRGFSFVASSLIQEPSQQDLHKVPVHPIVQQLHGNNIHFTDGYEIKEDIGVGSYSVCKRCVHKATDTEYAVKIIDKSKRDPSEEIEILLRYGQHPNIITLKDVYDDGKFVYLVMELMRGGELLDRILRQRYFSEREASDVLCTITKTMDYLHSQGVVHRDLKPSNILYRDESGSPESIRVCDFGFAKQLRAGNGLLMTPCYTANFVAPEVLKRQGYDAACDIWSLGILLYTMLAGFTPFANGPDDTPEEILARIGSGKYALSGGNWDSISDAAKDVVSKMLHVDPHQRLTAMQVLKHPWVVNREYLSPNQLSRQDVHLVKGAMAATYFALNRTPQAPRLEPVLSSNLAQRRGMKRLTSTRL

MV4-11 [12] = test: Antitumor activity against human MV4-11 cells xenografted in mouse assessed as inhibition of tumor growth at 15 mg/kg, po dosed for 21 days measured twice every week relative to control; type: functional; details: MV4-11, po, 504 h, time 21 day, read-out: TGI
MV4-11 [13] = test: Antitumor activity against human MV4-11 cells xenografted in mouse assessed as inhibition of tumor growth at 30 mg/kg, po dosed for 21 days measured twice every week relative to control; type: functional; details: MV4-11, po, 504 h, time 21 day, read-out: TGI
HT-29 [14] = test: Antiproliferative activity against human HT-29 cells incubated for 72 hrs by CCK8 assay; type: functional, cell-based
RPMI-8226 [15] = test: Antiproliferative activity against human RPMI-8226 cells incubated for 72 hrs by CCK8 assay; type: functional, cell-based
HT-29 [16] = test: Antiproliferative activity against human HT-29 cells incubated for 72 hrs in presence of gemcitabine by CCK8 assay; type: functional, cell-based
RPMI-8226 [17] = test: Antiproliferative activity against human RPMI-8226 cells incubated for 72 hrs in presence of gemcitabine by CCK8 assay; type: functional, cell-based
[18] = Selectivity ratio of Antiproliferative activity against human A549 cells to Antiproliferative activity against human A549 cells in presence of gemcitabine; type: functional
[19] = Selectivity ratio of Antiproliferative activity against human RPMI-8226 cells to Antiproliferative activity against human RPMI-8226 cells in presence of gemcitabine; type: functional
[20] = molecular target: T1, Serine/threonine-protein kinase Chk1 (Homo sapiens); test: Inhibition of CHK1 in human MV4-11 cells assessed as increase in phosphorylation at S345 residue incubated for 2 hrs by Western blot analysis; type: cell-based
[21] = molecular target: T1, Serine/threonine-protein kinase Chk1 (Homo sapiens); test: Inhibition of CHK1 in human HT-29 cells assessed as […] residue at 1.1 uM incubated for 12 hrs by Western blot analysis; type: cell-based
[22] = molecular target: T1, Serine/threonine-protein kinase Chk1 (Homo sapiens); test: Inhibition of CHK1 in human HT-29 cells assessed as […] residue at 0.12 to 3.3 uM incubated for 12 hrs in presence of gemcitabine by Western blot analysis; type: cell-based; details: dose 0.12-3.3 µM
HT-29 [23] = test: Induction of gamma-H2A.X in human HT-29 cells at 0.12 to 3.3 uM incubated for 12 hrs in presence of gemcitabine by Western blot analysis; type: functional, cell-based; details: dose 0.12-3.3 µM
HT-29 [24] = test: Antitumor activity against human HT-29 cells xenografted in mouse assessed as reduction in tumor growth by measuring T/C ratio at 30 mg/kg, po dosed 5 days/week for 22 days measured twice every week; type: functional; details: time 22 day
HT-29 [25] = test: Antitumor activity against human HT-29 cells xenografted in mouse assessed as reduction in tumor growth by measuring T/C ratio at 30 mg/kg, po cotreated with gemcitabine dosed 5 days/week for 22 days measured twice every week; type: functional; details: time 22 day
Mus musculus [26] = test: Induction of S345 phosphorylation in tumor of mouse xenografted with human HT-29 cells at 30 mg/kg, po dosed 5 days/week for 22 days by Western blot analysis; type: functional, organism-based; details: time 22.0 day
Mus musculus [27] = test: Downregulation of S296 phosphorylation in tumor of mouse xenografted with human HT-29 cells at 30 mg/kg, po dosed 5 days/week for 22 days cotreated with gemcitabine by Western blot analysis; type: functional, organism-based; details: time 22.0 day
Mus musculus [28] = test: Induction of S296 phosphorylation in tumor of mouse xenografted with human HT-29 cells at 30 mg/kg, po dosed 5 days/week for 22 days cotreated with gemcitabine by Western blot analysis; type: functional, organism-based; details: time 22.0 day

- Activity [2]: 19%
- Activity [3]: 18%
- IC50 (MV4-11 [4]): 140 nM
- half-life [5]: 650 min
- Cmax [6]: 1450 ng/mL
- AUC(0-t) [7]: 17700 ng·h/mL
- AUC(0-inf) [8]: 22700 ng·h/mL
- MRT inf [9]: 14.7 h
- Activity [10]: 4%
- Activity [11]: 14%
- Activity [20]: Dose-Dependent Effect
- Activity [21]: Active
- Activity [22]: Active
Compound: CC(C)(N)CCNc1nc(Nc2ccc(C#N)nc2)ncc1C(F)(F)F
- inhibition in vivo at 5 mg/kg (MV4-11 [1]): 51.6%
- IC50 (Z-138): 3.28 µM
- inhibition at 10 µM (hERG (KCNH2)): 35.5%
- inhibition in vivo at 15 mg/kg (MV4-11 [12]): 95.5%
- inhibition in vivo at 30 mg/kg (MV4-11 [13]): 94.9%
- Activity (HT-29 [14]): Active
- Activity (RPMI-8226 [15]): Active
- Activity (HT-29 [16]): Active
- Activity (RPMI-8226 [17]): Active
- Ratio [18]: 100
- Ratio [19]: 100
- Activity (HT-29 [23]): Active
- T/C (HT-29 [24]): 69.05%
- T/C (HT-29 [25]): 11.99%
- Activity (Mus musculus [26]): Active
- Activity (Mus musculus [27]): Active
- Activity (Mus musculus [28]): Active
